Series [1] addresses T1, ROCK1 (Homo sapiens, UniProt Q13464).
T1 construct: purchased Invitrogen; Thermo Fisher Scientific
The series can be described thus: ROCK1 protein kinase assay (Kinase-Glo Luminescent Kinase Assay). The format is biochemical. The protocol:
(§1) Dose response analyses were conducted to establish IC50 values, which were converted to Ki values using the Cheng-Prusoff Equation Ki = IC50/(1 + ([ATP]/Km ATP).

In series [2] the test system is transformed HTM cells (TM-1). The series can be described thus: Cell-based assay measuring disruption of focal adhesions (paxillin staining). On the set-up: species or system human. Particulars: 6 h, TM-1 cells on fibronectin-coated glass, Mean ± SEM, N ≥ 3. The protocol:
Cell-based assays measuring disruption of focal adhesions were conducted using transformed HTM cells (TM-1; kind gift from Donna Peters; Department of Ophthalmology and Visual Sciences, University of Wisconsin), as previously described ([39]). […] TM-1 cells were stained with an anti-paxillin primary antibody followed by incubation with an Alexa Fluor-488 fluorescent secondary antibody and Hoechst 33342 counterstain (all from Invitrogen) to reveal focal adhesions and nuclei, respectively. Images were collected on an INCell 1000 imager (GE Healthcare, Marlborough, MA, USA), and total area of focal adhesions was measured using a custom algorithm developed using the INCell Developer Toolbox, v1.6. Dose response analyses were conducted to establish IC50 values.

In series [3] the test system is HTM cell-encapsulated ECM hydrogels. The series can be described thus: HTM hydrogel contraction analysis after TGFβ2 induction and ROCKi rescue. Particulars: for HTM hydrogel contraction reversal compared with 10 µM Y27632 / Concentrations giving significantly decreased HTM hydrogel contraction compared to the TGFβ2 group / EC50: HTM07; for Concentrations giving significantly decreased HTM hydrogel contraction compared to the TGFβ2 group: dose range 0.0001-1.0 µM, 5-10 d; for EC50 / Increase of HTM hydrogel contraction over controls: TGFβ2 2.5 ng/ml 0-5 d; for EC50: then ROCKi 0.0001-1.0 µM 5-10 d, read-out: EC50, reduction of TGFβ2-induced HTM hydrogel contraction. The format is cell-based, human. Here is the method:
HTM cells (1.0 × 10^6 cells/ml) were thoroughly mixed with MA-COL (3.6 mg/ml), SH-HA (0.5 mg/ml, 0.025% (w/v) photoinitiator) and SH-ELP (2.5 mg/ml) on ice ( Supplementary Figure 2A ), followed by pipetting 10 μl droplets of the HTM cell-laden hydrogel precursor solution onto polydimethylsiloxane-coated (PDMS; Sylgard 184; Dow Corning) 24-well culture plates ( Supplementary Figure 2B ), according to our established protocols ([32]–[34]). Alternatively, 30 µl droplets of the HTM cell-laden hydrogel precursor solution were pipetted onto Surfasil-coated (Fisher Scientific) 18 × 18-mm square glass coverslips followed by placing a regular 12-mm round glass coverslip onto the hydrogels to facilitate even spreading of the polymer solution. HTM hydrogels were crosslinked by exposure to UV light (OmniCure S1500 UV Spot Curing System; Excelitas Technologies, Mississauga, Ontario, Canada) at 320-500 nm, 2.2 W/cm^2 for 5 s. The HTM hydrogel-adhered coverslips were removed with fine-tipped tweezers and placed hydrogel-side facing up in PDMS-coated 24-well culture plates ( Supplementary Figure 2C ).
Longitudinal brightfield images of HTM hydrogels subjected to the different treatments were acquired at 0 d and 10 d with an Eclipse Ti microscope (Nikon Instruments, Melville, NY, USA). Construct area was measured using Fiji software (National Institutes of Health (NIH), Bethesda, MD, USA) and normalized to 0 d followed by normalization to controls.

Series [4] relates to F-actin stress fibers in hydrogel-encapsulated HTM cells. The series can be described thus: HTM hydrogel immunocytochemistry, F-actin stress fibers. Format: cell-based, human. As to conditions: for Effect on TGFβ2-induced F-actin stress fibers vs. TGFβ2 group: HTM05, HTM07, HTM36. Here is the method:
Alternatively, 30 µl droplets of the HTM cell-laden hydrogel precursor solution were pipetted onto Surfasil-coated (Fisher Scientific) 18 × 18-mm square glass coverslips followed by placing a regular 12-mm round glass coverslip onto the hydrogels to facilitate even spreading of the polymer solution. HTM hydrogels were crosslinked by exposure to UV light (OmniCure S1500 UV Spot Curing System; Excelitas Technologies, Mississauga, Ontario, Canada) at 320-500 nm, 2.2 W/cm^2 for 5 s. The HTM hydrogel-adhered coverslips were removed with fine-tipped tweezers and placed hydrogel-side facing up in PDMS-coated 24-well culture plates ( Supplementary Figure 2C ).
Nuclei were counterstained with 4′,6′-diamidino-2-phenylindole (DAPI; Abcam). Coverslips were mounted with ProLong™ Gold Antifade (Invitrogen) on Superfrost™ microscope slides (Fisher Scientific), and fluorescent images were acquired with a Zeiss LSM 780 confocal microscope (Zeiss, Germany). […] Individual z-stacks consisted of 7 slices with the z-step interval set to […]. Fluorescence signal intensity of F-actin and αSMA were determined using Z-project maximum intensity projections in Fiji (NIH) with image background subtraction.

In series [5] the target is ROCK1/2. The series can be described thus: ROCK1/2 kinase assays, average of both isoforms. Format: biochemical, human. As to conditions: average of ROCK1 and ROCK2 Ki. The protocol: as §1
In series [6] the test system is normotensive Dutch Belted rabbits. On the set-up: method as in unpublished data. As to conditions: ref unpublished data; cited from earlier work.
Series [7] relates to cellular esterases. Particulars: stated in discussion, no reference given; cited from earlier work.
The target in series [8] is T2, ROCK2 (Homo sapiens, UniProt O75116).
T2 construct: purchased Invitrogen; Thermo Fisher Scientific
T2 sequence (O75116 whole entry): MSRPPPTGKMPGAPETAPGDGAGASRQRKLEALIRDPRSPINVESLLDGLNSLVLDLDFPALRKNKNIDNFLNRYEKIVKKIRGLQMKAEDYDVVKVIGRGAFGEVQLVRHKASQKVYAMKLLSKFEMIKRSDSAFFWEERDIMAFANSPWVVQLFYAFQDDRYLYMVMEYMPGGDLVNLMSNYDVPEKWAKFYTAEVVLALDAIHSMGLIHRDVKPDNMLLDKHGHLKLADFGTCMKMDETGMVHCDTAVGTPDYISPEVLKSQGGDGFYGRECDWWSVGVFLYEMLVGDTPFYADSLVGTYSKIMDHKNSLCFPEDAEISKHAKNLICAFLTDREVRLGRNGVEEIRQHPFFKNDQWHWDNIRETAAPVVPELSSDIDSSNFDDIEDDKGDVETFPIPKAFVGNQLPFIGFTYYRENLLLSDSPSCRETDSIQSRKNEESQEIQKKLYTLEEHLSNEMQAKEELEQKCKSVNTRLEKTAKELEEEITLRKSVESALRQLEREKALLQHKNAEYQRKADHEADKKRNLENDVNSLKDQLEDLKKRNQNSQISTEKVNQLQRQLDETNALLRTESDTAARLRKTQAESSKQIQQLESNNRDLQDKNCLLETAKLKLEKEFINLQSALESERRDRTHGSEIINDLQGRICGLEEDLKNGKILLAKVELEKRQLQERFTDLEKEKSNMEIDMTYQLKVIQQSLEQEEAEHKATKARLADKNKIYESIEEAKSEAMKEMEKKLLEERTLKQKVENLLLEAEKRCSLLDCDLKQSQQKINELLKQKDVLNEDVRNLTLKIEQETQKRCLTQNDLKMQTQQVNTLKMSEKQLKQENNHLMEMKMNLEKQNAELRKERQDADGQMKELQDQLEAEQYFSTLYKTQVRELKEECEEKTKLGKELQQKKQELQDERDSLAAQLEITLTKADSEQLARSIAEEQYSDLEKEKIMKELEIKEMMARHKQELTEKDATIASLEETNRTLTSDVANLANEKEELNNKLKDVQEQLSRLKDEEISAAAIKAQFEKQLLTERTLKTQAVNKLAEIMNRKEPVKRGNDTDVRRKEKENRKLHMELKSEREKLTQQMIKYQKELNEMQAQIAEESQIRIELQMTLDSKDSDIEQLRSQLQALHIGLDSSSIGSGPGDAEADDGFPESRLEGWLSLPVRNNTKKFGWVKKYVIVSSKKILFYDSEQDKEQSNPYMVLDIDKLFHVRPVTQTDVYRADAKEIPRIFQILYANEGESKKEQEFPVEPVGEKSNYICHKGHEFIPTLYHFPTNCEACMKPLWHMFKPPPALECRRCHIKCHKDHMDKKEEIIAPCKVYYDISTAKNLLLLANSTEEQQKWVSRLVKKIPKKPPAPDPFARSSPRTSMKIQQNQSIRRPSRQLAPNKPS
Nature of the series: ROCK2 protein kinase assay (Kinase-Glo Luminescent Kinase Assay). The format is biochemical. The protocol:
as §1
In general terms: Kinase-Glo reads ATP consumption through a luciferase reaction.

The conditions of series [9]: stated in discussion, no reference given; cited from earlier work.
Series [10] relates to transformed HTM cells (TM-1). As to conditions: same cell-based assay; ref [13]; read-out: IC50 of Y27632, HTM cell focal adhesion disruption; cited from earlier work.
In series [11] the target is ROCK1/2. Particulars: same biochemical assay; ref [13]; read-out: Ki of Y27632; cited from earlier work.
Where [12] appears, read: each compound at its respective EC50, HTM05, HTM07, HTM36.
Where [13] appears, read: each compound at its respective EC50.
The mark [14] stands for this setting: each compound at its respective EC50, across HTM05, HTM07, HTM36, 10 d.
The mark [15] stands for this setting: each compound at its respective EC50, pooled HTM05, HTM07, HTM36, 10 d.
Where [16] appears, read: TGFβ2 induction group, across three cell strains.

Entries after “also recorded” stand apart in the source; their conditions may differ. Like-named read-outs stand apart in the source and are kept apart here.

Consider 7 molecules from paper PMC11182288, “Effects of Netarsudil-Family Rho Kinase Inhibitors on Human Trabecular Meshwork Cell Contractility and Actin Remodeling Using a Bioengineered ECM Hydrogel” (Frontiers in Ophthalmology, 2022).

T1 sequence (Q13464 whole entry): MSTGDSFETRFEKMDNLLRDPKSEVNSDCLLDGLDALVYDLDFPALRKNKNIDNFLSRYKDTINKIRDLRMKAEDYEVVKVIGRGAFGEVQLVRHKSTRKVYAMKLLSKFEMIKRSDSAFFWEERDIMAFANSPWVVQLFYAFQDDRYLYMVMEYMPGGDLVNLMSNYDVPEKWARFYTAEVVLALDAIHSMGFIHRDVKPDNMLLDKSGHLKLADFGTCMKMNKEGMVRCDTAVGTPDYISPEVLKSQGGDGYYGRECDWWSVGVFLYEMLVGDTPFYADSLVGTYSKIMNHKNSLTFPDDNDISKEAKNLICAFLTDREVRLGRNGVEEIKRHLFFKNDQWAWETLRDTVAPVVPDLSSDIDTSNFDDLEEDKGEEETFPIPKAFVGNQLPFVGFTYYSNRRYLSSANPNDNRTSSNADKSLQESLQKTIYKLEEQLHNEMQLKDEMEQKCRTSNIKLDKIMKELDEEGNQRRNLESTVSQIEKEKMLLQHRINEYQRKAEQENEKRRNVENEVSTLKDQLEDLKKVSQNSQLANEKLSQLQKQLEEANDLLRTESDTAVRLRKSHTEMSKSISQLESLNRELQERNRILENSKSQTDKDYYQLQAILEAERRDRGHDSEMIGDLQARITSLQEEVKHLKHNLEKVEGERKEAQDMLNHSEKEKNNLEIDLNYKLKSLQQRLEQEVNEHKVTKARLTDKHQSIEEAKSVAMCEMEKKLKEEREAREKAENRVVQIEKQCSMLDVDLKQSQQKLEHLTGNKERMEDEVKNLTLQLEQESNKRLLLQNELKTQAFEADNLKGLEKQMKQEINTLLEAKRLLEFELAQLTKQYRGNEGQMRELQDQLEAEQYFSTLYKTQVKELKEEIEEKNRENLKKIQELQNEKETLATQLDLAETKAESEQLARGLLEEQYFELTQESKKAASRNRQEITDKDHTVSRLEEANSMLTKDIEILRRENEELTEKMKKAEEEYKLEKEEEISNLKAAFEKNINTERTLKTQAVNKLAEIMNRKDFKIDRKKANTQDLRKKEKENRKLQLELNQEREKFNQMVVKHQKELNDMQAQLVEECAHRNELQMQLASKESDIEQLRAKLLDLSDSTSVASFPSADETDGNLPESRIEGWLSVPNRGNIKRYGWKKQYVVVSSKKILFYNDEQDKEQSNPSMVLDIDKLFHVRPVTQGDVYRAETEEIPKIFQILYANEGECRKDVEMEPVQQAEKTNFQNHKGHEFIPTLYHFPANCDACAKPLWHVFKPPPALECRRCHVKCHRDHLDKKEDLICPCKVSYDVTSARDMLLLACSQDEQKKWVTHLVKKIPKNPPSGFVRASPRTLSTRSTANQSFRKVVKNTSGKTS

For `NC[C@@H](C(=O)Nc1ccc2cnccc2c1)c1ccc(COC(=O)c2ccccc2)cc1` [Compound A], the Ki (usually a dissociation constant, usually derived from enzyme kinetics or from competition with a known ligand) in series [1] is 1.5 ± 0.7 nM; in series [5], around 1.4 nM. The IC50 (as a rule, the concentration that gives 50% inhibition) in [2] (Homo sapiens) was around 15 nM. Further, the “HTM hydrogel contraction reversal compared with 10 µM Y27632” value in series [3] (compound at 1.0 µM) is “not different”. The “Concentrations giving significantly decreased HTM hydrogel contraction compared to the TGFβ2 group” value in [3] was at least 0.01 µM. Besides, in series [3] (Homo sapiens, HTM), the EC50 (as a rule, the concentration giving half of the maximal effect) came to 3.7 nM. Moreover, the “Effect on TGFβ2-induced HTM hydrogel contraction vs. TGFβ2 group” value in [3] (setting [12]) is on record as “failed to reverse”. Also, the “Effect on TGFβ2-induced HTM hydrogel contraction, HTM36” value in series [3] (uniform ROCKi concentration of 35.9 nM, HTM36) is listed as “significantly decreased”. The “Effect on TGFβ2-induced F-actin stress fibers vs. TGFβ2 group” value in series [4] (setting [13]) is given as “not different from TGFβ2”. Moreover, the Intraocular pressure lowering result in [6] is reported as “did not perform as well; also recorded: unable to significantly lower intraocular pressure”. Further, the “Metabolism by cellular esterases (ester hydrolysis)” value (“Metabolism by cellular esterases” for short) in series [7] is “more quickly metabolized than netarsudil”.
On to `NC[C@@H](C(=O)Nc1ccc2cnccc2c1Cl)c1ccccc1` [Compound B], for which the Ki in series [1] is 1.7 nM; in series [8] it was 2 nM; in series [5], around 1.9 nM. Moreover, the “Concentrations giving significantly decreased HTM hydrogel contraction compared to the TGFβ2 group” value in series [3] is at least 0.1 µM. In addition, the EC50 in [3] (Homo sapiens, HTM) stood at 22.2 nM. The “Effect on TGFβ2-induced HTM hydrogel contraction vs. TGFβ2 group” value in series [3] (setting [12]) is “significantly decreased TGFβ2-induced HTM hydrogel contraction using HTM05 and HTM36 cells”. Besides, the “Relative hydrogel size vs. controls” value in [3] (setting [14]) is ~ 105%. Further, the “Effect on TGFβ2-induced F-actin stress fibers vs. TGFβ2 group” value in series [4] (setting [13]) was “significantly decreased”. In series [4] (setting [15]), the “Relative F-actin signal fold-change vs. controls” value is listed as ~ 1.1 fold-change. For the same molecule, the Intraocular pressure lowering entry in series [6] is reported as “did not perform as well as netarsudil”. In addition, in [7], the “Metabolism by cellular esterases” value is reported as “cannot be metabolized by cellular esterases at all”.
Take `NC[C@@H](C(=O)Nc1ccc2cnccc2c1)c1ccc(Cl)cc1` [Compound C]: the values for the Ki in series [1], in series [8] and in [5] were 1.8 ± 0.3 nM, 1.2 ± 0.4 nM and around 1.5 nM, respectively. In addition, the IC50 in series [2] (Homo sapiens) is around 5.6 nM. Besides, the “HTM hydrogel contraction reversal compared with 10 µM Y27632” value in [3] (compound at 1.0 µM) is reported as “comparable”. Besides, the “Concentrations giving significantly decreased HTM hydrogel contraction compared to the TGFβ2 group” value in [3] was at least 0.01 µM. Also, in [3] (Homo sapiens, HTM), the EC50 amounted to 6.7 nM. In series [3] (setting [12]), the “Effect on TGFβ2-induced HTM hydrogel contraction vs. TGFβ2 group” value is “failed to rescue”. Also, the “Relative hydrogel size vs. controls” value in series [3] (setting [14]) is recorded as ~ 87%. In series [4] (setting [13]), the “Effect on TGFβ2-induced F-actin stress fibers vs. TGFβ2 group” value is “significantly different from TGFβ2”. Also, the “Relative F-actin signal fold-change vs. controls” value in series [4] (setting [15]) is ~ 1.3 fold-change. In [6], the Intraocular pressure lowering entry is on record as “did not perform as well; also recorded: unable to significantly lower intraocular pressure”. The “Metabolism by cellular esterases” value in series [7] was “cannot be metabolized by cellular esterases at all”.
Regarding `NC[C@@H](C(=O)Nc1ccc2cnccc2c1)c1ccc(O)cc1` [Compound D], the Ki in [1] was 4.5 ± 2 nM; in [8] it was 1.7 ± 0.7 nM; in [5] it was around 3.1 nM. This molecule also yielded an IC50 in series [2] (Homo sapiens) of around 193 nM. Further, the “Concentrations giving significantly decreased HTM hydrogel contraction compared to the TGFβ2 group” value in series [3] is listed as at least 0.1 µM. Moreover, the EC50 in series [3] (Homo sapiens, HTM) turned out to be 123 nM. Besides, in [3] (setting [12]), the “Effect on TGFβ2-induced HTM hydrogel contraction vs. TGFβ2 group” value is given as “significantly decreased”. The “Relative hydrogel size vs. controls” value in [3] (setting [14]) is ~ 96%. Further, the “Effect on TGFβ2-induced F-actin stress fibers vs. TGFβ2 group” value in [4] (setting [13]) is “significantly decreased TGFβ2-induced F-actin stress fibers across all three HTM cell strains”. In series [4] (setting [15]), the “Relative F-actin signal fold-change vs. controls” value is recorded as ~ 0.8 fold-change. The Intraocular pressure lowering result in [6] is “did not perform as well as netarsudil”. Further, the “Ionization at physiological pH” value in series [9] was “partially ionized at physiological pH”.
As to `C[C@@H](N)[C@H]1CC[C@H](C(=O)Nc2ccncc2)CC1` [Compound Y27632, Y27632], the IC50 in series [10] was around 1740 nM. Besides, the inhibition constant Ki in series [11] was around 31.5 nM.
`Cc1ccc(C(=O)OCc2ccc([C@@H](CN)C(=O)Nc3ccc4cnccc4c3)cc2)c(C)c1` [Netarsudil] registered an IC50 in [2] of 17 ± 2 nM. This molecule also returned an IC50 in [2] (listed as netarsudil) of around 17 nM. Moreover, in [3], the “Effect on TGFβ2-induced HTM hydrogel contraction, overall across HTM07 and HTM36” value is given as “significantly decreased”; the EC50 stood at 35.9 nM; the “Concentrations giving significantly decreased HTM hydrogel contraction compared to the TGFβ2 group” value is listed as at least 0.01 µM. For the same molecule, the “HTM hydrogel contraction reversal compared with 10 µM Y27632” value in series [3] (compound at 0.1 µM) is on record as “equivalent”. In addition, in series [3] (compound at 1.0 µM), the “HTM hydrogel contraction reversal compared with 10 µM Y27632” value is on record as “significantly more potent”. Further, the “Difference in efficacy, netarsudil 1.0 µM vs. 35.9 nM” value in series [3] (HTM hydrogel contraction, across three cell strains) is ~ 1.2 fold. In addition, in series [3] (setting [12]), the “Effect on TGFβ2-induced HTM hydrogel contraction vs. TGFβ2 group” value is “significantly decreased”. The “Effect on TGFβ2-induced F-actin stress fibers vs. TGFβ2 group” value in series [4] (setting [13]) is on record as “significantly decreased”. Also, the “Effect on F-actin signal” value in series [4] (max level netarsudil, 1.0 µM) is “nearly abolishing the F-actin signal”. The same molecule yielded a Ki in series [5] of around 2.7 nM.

B1: TGFβ2: transforming growth factor beta 2, used to induce a glaucoma-like cell phenotype (protein, UniProt P61812 303-414, looked up)
Transforming growth factor …: ALDAAYCFRNVQDNCCLRPLYIDFKRDLGWKWIHEPKGYNANFCAGACPYLWSSDTQHSRVLSLYNTINPEASASPCCVSQDLEPLTILYYIGKTPKIEQLSNMIVKSCKCS
Take B1: the “Increase of HTM hydrogel contraction over controls” value in [3] (HTM05, HTM07, HTM36) is recorded as ~ 25%; in series [3] (HTM07 and HTM36, higher passage cells), ~ 15%. Further, the “Relative hydrogel size vs. controls” value in series [3] (setting [16]) is ~ 75%. The “Relative F-actin signal fold-change vs. controls” value in series [4] (setting [16]) is ~ 1.9 fold-change.
